# Patent publication US7731985B2, “4-aminopyrimidines and their use for the antimicrobial treatment of surfaces” (Ciba Specialty Chemicals Corporation, priority 2002, dated 2010)
# Legend:
# Test in all cases: MIC in microtitre plates (Example 10)
# Type in all cases: cell-based
# Set-up in all cases: unit not given here
# Conditions in all cases: microtitre plate, 48 hours at 37° C., ≦20% growth
# [1] = system: Candida albicans ATCC 10231 (=CA)
# Protocol: (§1) Determination of the Minimum Inhibitory Concentration (MIC Value) in Microtitre Plates Casein/soymeal peptone broth for preparation of pre-cultures of test bacteria and yeast Bacteria: • Pseudomonas aeruginosa CIP A-22 (=PA) • Escherichia coli NCTC 8196 (=EC) • Staphylococcus aureus ATCC 9144 (=SA) • Candida albicans ATCC 10231 (=CA) The test substances are pre-dissolved in dimethyl sulfoxide (DMSO) and tested in a dilution series of 1:2. Bacteria and yeast are cultured overnight in CASO broth. All the test organism suspensions are adjusted to an organism count of 1-5×10^6 CFU/ml using […] sodium chloride solution. The test substances are pre-pipetted into microtitre plates in amounts of 8 μl per well. The pre-adjusted organism suspensions are diluted 1:100 in CASO broth and are added in amounts of 192 μl per well to the test substances. The test batches are incubated for 48 hours at 37° C. The incubation, the growth is determined on the basis of the turbidity of the test batches (optical density) at 620 nm in a microplate reader. The minimum inhibitory concentration (MIC value) is the concentration of substance at which (compared to the growth of the control) an appreciable inhibition of growth (≦20% growth) of the test organisms is observed. Three microtitre plates are used for each test organism and substance concentration. All the substances are tested in duplicate.
# [2] = system: Staphylococcus aureus ATCC 9144 (=SA)
# Protocol: as §1
# [3] = system: Escherichia coli NCTC 8196 (=EC)
# Protocol: as §1
# [4] = system: Pseudomonas aeruginosa CIP A-22 (=PA)
# Protocol: as §1
MIC CA [1],MIC SA [2],MIC EC [3],MIC PA [4],Structure (SMILES)
<3.75,<3.75,7.5,>120,CCCCCCCCCCCCCCNc1cc(C)nc(-c2cccnc2)n1 [compound 38]
15,<3.75,30,>120,CCCCCCCCCCCCCCCCNc1cc(C)nc(-c2cccnc2)n1 [compound 39]
120,60,>120,>120,CCCC(C)Nc1cc(C)nc(-c2cccnc2)n1 (stereo not drawn) [compound 40]
60,30,>120,>120,Cc1cc(NC(C)CC(C)C)nc(-c2cccnc2)n1 (stereo not drawn) [compound 41]
30,<3.75,120,>120,CCCCC(CC)CNc1cc(C)nc(-c2cccnc2)n1 (stereo not drawn) [compound 42]
120,60,>120,>120,COCC(C)Nc1cc(C)nc(-c2cccnc2)n1 (stereo not drawn) [compound 43]
120,120,>120,>120,CCN(CC)CCCNc1cc(C)nc(-c2cccnc2)n1 [compound 44]
120,60,>120,>120,Cc1cc(NCc2ccccc2)nc(-c2cccnc2)n1 [compound 45]
120,120,>120,>120,Cc1cc(NC2CCCCC2)nc(-c2cccnc2)n1 [compound 46]
>120,120,>120,>120,Cc1cc(Nc2ccccn2)nc(-c2cccnc2)n1 [compound 47]
60,30,>120,>120,Cc1cc(NCCc2ccccc2)nc(-c2cccnc2)n1 [compound 48]
>120,120,>120,>120,Cc1cc(NCc2ccccn2)nc(-c2cccnc2)n1 [compound 49]
>120,120,>120,>120,Cc1cc(N2CCOCC2)nc(-c2cccnc2)n1 [compound 50]
>120,30,>120,>120,Cc1cc(NCc2ccco2)nc(-c2cccnc2)n1 [compound 51]
120,30,>120,>120,CCCN(CCC)c1cc(C)nc(-c2cccnc2)n1 [compound 52]
120,60,>120,>120,CCCCN(C)c1cc(C)nc(-c2cccnc2)n1 [compound 53]
120,15,>120,>120,CCCCN(CCCC)c1cc(C)nc(-c2cccnc2)n1 [compound 54]
>120,120,>120,>120,Cc1cc(N(C)CCO)nc(-c2cccnc2)n1 [compound 55]
120,60,>120,>120,Cc1cc(N2CCCCCC2)nc(-c2cccnc2)n1 [compound 56]
120,60,>120,>120,CCCCCCCCNc1cc(C)nc(-c2ccc(-c3ccccc3)cc2)n1 [compound 57]
60,15,120,>120,CCCCCCCCNc1cc(C)nc(-c2ccc(C(C)(C)C)cc2)n1 [compound 58]
60,15,60,>120,CCCCCCCCNc1cc(C)nc(-c2cccs2)n1 [compound 59]
120,120,>120,>120,CCCCCCCCNc1cc(C)nc(-c2cccc(C)c2)n1 [compound 60]
120,30,120,>120,CCCCCCCCNc1cc(C)nc(-c2cccc(F)c2)n1 [compound 61]

MIC CA [1],MIC SA [2],MIC EC [3],MIC PA [4],Structure (SMILES)
120,60,120,>120,CCCCCCCCNc1cc(C)nc(-c2cccc(OC)c2)n1 [compound 62]
60,15,30,>120,CCCCCCCCNc1cc(C)nc(-c2ccccc2)n1 [compound 63]
15,7.5,30,>120,CCCCCCCCNc1cc(C)nc(-c2ccccc2)n1 [compound 64]
15,30,60,>120,CCCCCCCCNc1cc(C)nc(C)n1 [compound 65]
30,<3.75,30,>120,CCCCCCCCNc1cc(C)nc(-c2ccc(C)cc2)n1 [compound 66]
7.5,7.5,30,>120,CCCCCCCCNc1cc(C)nc(C2CC2)n1 [compound 67]
15,15,30,>120,CCCCCCCCNc1cc(C)nc(C(C)C)n1 [compound 68]
7.5,<3.75,30,>120,CCCCCCCCNc1cc(C)nc(-c2csc(C)n2)n1 [compound 69]
7.5,<3.75,15,>120,CCCCCCCCNc1cc(C)nc(-c2ccc(C)c(F)c2)n1 [compound 70]
7.5,7.5,15,>120,CCCCCCCCCCCCCCNc1cc(C)nc(-c2ccc(-c3ccccc3)cc2)n1 [compound 71]
7.5,7.5,15,>120,CCCCCCCCCCCCCCNc1cc(C)nc(-c2ccc(C(C)(C)C)cc2)n1 [compound 72]
<3.75,<3.75,7.5,>120,CCCCCCCCCCCCCCNc1cc(C)nc(-c2cccs2)n1 [compound 73]
<3.75,<3.75,7.5,>120,CCCCCCCCCCCCCCNc1cc(C)nc(-c2ccsc2)n1 [compound 74]
7.5,7.5,15,>120,CCCCCCCCCCCCCCNc1cc(C)nc(-c2cccc(F)c2)n1 [compound 75]
30,15,60,>120,CCCCCCCCCCCCCCNc1cc(C)nc(-c2ccccc2)n1 [compound 76]
15,7.5,60,>120,CCCCCCCCCCCCCCNc1cc(C)nc(-c2ccncc2)n1 [compound 77]
<3.75,<3.75,7.5,>120,CCCCCCCCCCCCCCNc1cc(C)nc(C)n1 [compound 78]
<3.75,<3.75,<3.75,>120,CCCCCCCCCCCCCCNc1cc(C)nc(-c2ccc(C)cc2)n1 [compound 79]
7.5,<3.75,7.5,>120,CCCCCCCCCCCCCCNc1cc(C)nc(C2CC2)n1 [compound 80]
<3.75,<3.75,<3.75,>120,CCCCCCCCCCCCCCNc1cc(C)nc(C(C)C)n1 [compound 81]
7.5,<3.75,15,>120,CCCCCCCCCCCCCCNc1cc(C)nc(-c2csc(C)n2)n1 [compound 82]
<3.75,<3.75,7.5,>120,CCCCCCCCCCCCCCNc1cc(C)nc(-c2ccc(C)c(F)c2)n1 [compound 83]
7.5,15,15,>120,CCCCCCCCCCCCNc1cc(C)nc(-c2ccc(-c3ccccc3)cc2)n1 [compound 84]
7.5,15,7.5,<120,CCCCCCCCCCCCNc1cc(C)nc(-c2ccc(C(C)(C)C)cc2)n1 [compound 85]
